Source: paper PMC13329992, “Catalytic Promiscuity Underpins Metabolic Resistance to Auxinic Herbicides in Echinochloa phyllopogon” (Journal of Agricultural and Food Chemistry, 2026)

Target: T1, CYP81A24 (Echinochloa phyllopogon, UniProt R4WC97)
T1 construct: expressed in E. coli C41(DE3) from pET28 with co-expressed Arabidopsis ATR2 reductase (pCDF, with HemA) and pGro7 chaperonin
T1 sequence (R4WC97 1-515): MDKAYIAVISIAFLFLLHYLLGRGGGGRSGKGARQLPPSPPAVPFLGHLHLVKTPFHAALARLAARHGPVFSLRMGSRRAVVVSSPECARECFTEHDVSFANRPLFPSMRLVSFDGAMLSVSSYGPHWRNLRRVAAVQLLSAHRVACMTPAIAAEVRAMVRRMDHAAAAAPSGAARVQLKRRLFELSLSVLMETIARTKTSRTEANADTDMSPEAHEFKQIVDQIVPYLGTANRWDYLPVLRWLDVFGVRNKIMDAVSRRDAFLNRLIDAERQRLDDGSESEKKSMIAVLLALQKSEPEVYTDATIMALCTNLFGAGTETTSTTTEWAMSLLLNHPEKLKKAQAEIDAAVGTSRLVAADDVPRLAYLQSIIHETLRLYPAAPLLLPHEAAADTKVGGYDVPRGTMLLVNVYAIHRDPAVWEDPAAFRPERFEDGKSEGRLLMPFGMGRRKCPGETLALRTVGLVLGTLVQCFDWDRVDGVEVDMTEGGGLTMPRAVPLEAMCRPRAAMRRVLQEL
Test: E. coli whole-cell metabolism, LC-MS/MS MRM m/z […] to […]
Format: cell-based
Conditions: 0.2 mM quinclorac, 24 h, 30 °C; co-expressed ATR2 reductase; putative hydroxylated product, no authentic standard

O=C(O)c1c(Cl)ccc2cc(Cl)cnc12 [quinclorac]
E. coli whole-cell metabolism, LC-MS/MS MRM m/z 258 to 177: identified in the culture solution of E. coli with CYP81A12, CYP81A21, and CYP81A24
